Measurements: publication PMC5392131 (Current topics in behavioral neurosciences, 2017)
pIC50: −log10 of the molar value. Read-outs that look alike come from different tables or passages of the source.

Columns and labels:
[1] = Plasma pharmacokinetics of MDPV and metabolites after i.p. MDPV administration; details: rat plasma
[2] = system: male Sprague–Dawley rats; experiment: Locomotor activity; format: in vivo, rat; details: rats undergoing microdialysis; i.v. 3 mg/kg (after 1.0 mg/kg at time zero)
[3] = system: extracellular dopamine in nucleus accumbens; experiment: In vivo microdialysis in nucleus accumbens, dialysate dopamine; details: rat nucleus accumbens; i.v. 3 mg/kg (after 1.0 mg/kg at time zero)
[4] = system: DAT; experiment: DAT uptake inhibition in rat brain synaptosomes; format: biochemical; details: for DAT/SERT ratio: (DAT IC50)^−1/(SERT IC50)^−1, higher values indicate greater DAT selectivity
[5] = system: NET; experiment: NET uptake inhibition in rat brain synaptosomes; format: biochemical; details: relative to cocaine
[6] = system: extracellular dopamine in nucleus accumbens; details: rats, cited from earlier work; for Elevation in extracellular dopamine: i.v. 0.3 mg/kg MDPV, 3.0 mg/kg methylone
[7] = cited from earlier work
[8] = system: male Sprague–Dawley rats; details: cited from earlier work
[9] = system: CYP 2D6; details: read-out: CYP 2D6 inhibition IC50; in vitro; cited from earlier work
[10] = system: SERT; experiment: SERT uptake inhibition in rat brain synaptosomes; format: biochemical; details: relative to cocaine
[11] = system: extracellular 5-HT in nucleus accumbens; details: rats; i.v. 3.0 mg/kg methylone; cited from earlier work
[12] = system: DAT; details: S-MDPV versus R-MDPV; cited from earlier work
[13] = i.p. MDPV 0.5 mg/kg, mean±SEM, N=6
[14] = i.p. MDPV 1.0 mg/kg, mean±SEM, N=6
[15] = i.p. MDPV 2.0 mg/kg, mean±SEM, N=6
[16] = i.p. MDPV 2.0 mg/kg, mean±SEM, N=6, listed as MPDV

Compound: CCCC(C(=O)c1ccc(O)c(O)c1)N1CCCC1 (centres unmarked) [3,4-Catechol-PV, 3,4-dihydroxypyrovalerone]
- AUC [1, 13]: 2,822±415 min μg/L
- Cmax [1, 13]: 14 ± 2 ng/mL
- Tmax [1, 13]: 2.67 ± 0.417 h
- AUC [1, 14]: 8,317±589 min μg/L
- Cmax [1, 14]: 36 ± 4 ng/mL
- Tmax [1, 14]: 3.15 ± 0.983 h
- AUC [1, 15]: 12,762±1,625 min μg/L
- Cmax [1, 15]: 46 ± 9 ng/mL
- Tmax [1, 15]: 3.43 ± 0.417 h
- Effect on ambulation [2]: no change in ambulation
- Effect on extracellular dopamine [3]: small, albeit significant, elevations

Compound: CCCC(C(=O)c1ccc(O)c(OC)c1)N1CCCC1 (centres unmarked) [4-OH-3-MeO-PV, 4-hydroxy-3-methoxypyrovalerone]
- AUC [1, 13]: 14,657±2,577 min μg/L
- Cmax [1, 13]: 57 ± 7 ng/mL
- Tmax [1, 13]: 2.8 ± 0.45 h
- AUC [1, 14]: 28,168±3,373 min μg/L
- Cmax [1, 14]: 135 ± 23 ng/mL
- Tmax [1, 14]: 4.33 ± 0.4 h
- AUC [1, 15]: 51,925±7,946 min μg/L
- Cmax [1, 15]: 198 ± 31 ng/mL
- Tmax [1, 15]: 4 ± 0.9 h
- DAT/SERT ratio [4]: >12

Compound: CC(N)Cc1ccccc1 (centres unmarked) [Amphetamine, reference compound]
- DAT/SERT ratio [4]: 36.75

Compound: COC(=O)[C@H]1[C@@H](OC(=O)c2ccccc2)C[C@@H]2CC[C@H]1N2C [Cocaine, reference compound]
- DAT/SERT ratio [4]: 1.48

Compound: CCCC(C(=O)c1ccc2c(c1)OCO2)N1CCCC1 (centres unmarked) [MDPV, 3,4-methylenedioxypyrovalerone]
- Potency as inhibitor at NET compared to cocaine [5]: tenfold more potent
- AUC [1, 13]: 1,114 min μg/L
- Cmax [1, 13]: 20 ± 5 ng/mL
- Tmax [1, 13]: 0.167 ± 0 h
- t1/2 [1, 13]: 1.53 ± 0.12 h
- AUC ([1]; i.p. MDPV 0.5 mg/kg, mean±SEM, N=6, listed as MPDV): 1,114±330 min μg/L
- AUC [1, 14]: 2,858±859 min μg/L
- Cmax [1, 14]: 54 ± 18 ng/mL
- Tmax [1, 14]: 0.167 ± 0 h
- t1/2 [1, 14]: 1.32 ± 0.217 h
- AUC [1, 15]: 8,726 min μg/L
- Cmax [1, 15]: 135 ± 29 ng/mL
- Tmax [1, 15]: 0.167 ± 0 h
- AUC [1, 16]: 8,726±1,877 min μg/L
- t1/2 [1, 16]: 1.65 ± 0.233 h
- Time at which Cmax is achieved ([1]; i.p. MDPV (0.5, 1, 2 mg/kg)): ≤ 10 min
- Cmax ([1]; read-out: Cmax (molar), i.p. MDPV 2 mg/kg): ~500 nM
- DAT/SERT ratio [4]: 816.82
- Potency as inhibitor at DAT compared to cocaine ([4]; rat brain synaptosomes, relative to cocaine): 50 fold
- Elevation in extracellular dopamine [6]: threefold
- Potency to increase dialysate dopamine compared to cocaine ([6]; i.v. administration): tenfold more potent
- Half-life (t1/2) ([7]; rat plasma, 2 mg/kg s.c. MDPV): about 80 min
- Plasma Cmax ([7]; rat, 2 mg/kg s.c. MDPV): 271 ng/mL
- Time of maximal plasma concentration (Cmax) after injection ([7]; rat, s.c. MDPV (0.5, 1, 2 mg/kg)): 15 to 20 min
- Cmax ([7]; read-out: Plasma Cmax (molar), rat, 2 mg/kg s.c. MDPV): ~1000 nM
- Potency as locomotor stimulant compared to cocaine [8]: about tenfold more potent
- pIC50 [9]: 5.89
- Potency as inhibitor at SERT compared to cocaine [10]: tenfold less potent

Compound: CNC(C)C(=O)c1ccc(C)cc1 (centres unmarked) [Mephedrone, 4-methyl-N-methylcathinone, reference compound]
- DAT/SERT ratio [4]: 0.55

Compound: CNC(C)C(=O)c1ccc2c(c1)OCO2 (centres unmarked) [Methylone, 3,4-methylenedioxy-N-methylcathinone, reference compound]
- DAT/SERT ratio [4]: 0.77
- Elevation in extracellular 5-HT [11]: tenfold
- Elevation in extracellular dopamine [6]: threefold

Compound: CCC[C@@H](C(=O)c1ccc2c(c1)OCO2)N1CCCC1 [S-MDPV]
- Potency at inhibiting DAT compared to R-MDPV [12]: 100 times

Compound: CCC(C(=O)c1ccccc1)N1CCCC1 (stereo not drawn) [α-PBP, α-pyrrolidinobutiophenone]
- DAT/SERT ratio [4]: >159

Compound: CC(C(=O)c1ccccc1)N1CCCC1 (stereo not drawn) [α-PPP, α-pyrrolidinopropiophenone]
- DAT/SERT ratio [4]: >50

Compound: CCCC(C(=O)c1ccccc1)N1CCCC1 (stereo not drawn) [α-PVP, α-pyrrolidinovalerophenone]
- DAT/SERT ratio [4]: >833
